Experimental data published in patent USRE47689E1, “Compounds for treating spinal muscular atrophy” (PTC Therapeutics, Inc., priority 2011, dated 2019).

Test system: SMA Δ7 homozygous knockout mice
Experiment: Righting reflex in neonatal Δ7 SMA mice
Assay type: in vivo, mouse
Conditions: IP QD from PND 3 to day 24, then orally BID, compared to vehicle
Protocol: The functional change in righting reflex of neonatal SMA mice is used to determine whether treatment with a test compound improves righting reflex.
Protocol. SMA Δ7 homozygous knockout mice are dosed intraperitoneally (IP) with test compound or vehicle (100% DMSO) once per day (QD) from postnatal day (PND) 3 until the dose regimen is switched to an oral dose twice per day (BID) in 0.5% hydroxypropylmethyl cellulose (HPMC) with 0.1% Tween-80 at a dose 3.16-fold higher than the dose used for IP. The righting reflex time is measured as the time taken by a mouse to flip over onto its feet after being laid on its back. Righting reflex is measured five times for each mouse (allowing a maximal time of 30 sec for each try) with 5 minutes between each measurement. The righting reflex time for SMA Δ7 homozygous knockout mice treated with test compound or vehicle and age-matched heterozygous mice is measured on PND 10, 14 and 18 and plotted.

CC(C)NCCc1ccc2cc(-c3nc4c(Cl)cccc4s3)c(=O)oc2c1 [Cpd 35, 3-(4-chloro-1,3-benzothiazol-2-yl)-7-[2-(propan-2-ylamino)ethyl]-2H-chromen-2-one]
righting reflex: improved compared to vehicle treated mice
